Assay results: US7741327B2 (Hoffmann-La Roche Inc., priority 2008, dated 2010)

Molecular target: T1, Recombinant human liver GK1 (GST-GK) (Homo sapiens, UniProt P35557)
T1 construct: made in house; host or cells: E. coli
T1 sequence (P35557 1-466 isoform P35557-2): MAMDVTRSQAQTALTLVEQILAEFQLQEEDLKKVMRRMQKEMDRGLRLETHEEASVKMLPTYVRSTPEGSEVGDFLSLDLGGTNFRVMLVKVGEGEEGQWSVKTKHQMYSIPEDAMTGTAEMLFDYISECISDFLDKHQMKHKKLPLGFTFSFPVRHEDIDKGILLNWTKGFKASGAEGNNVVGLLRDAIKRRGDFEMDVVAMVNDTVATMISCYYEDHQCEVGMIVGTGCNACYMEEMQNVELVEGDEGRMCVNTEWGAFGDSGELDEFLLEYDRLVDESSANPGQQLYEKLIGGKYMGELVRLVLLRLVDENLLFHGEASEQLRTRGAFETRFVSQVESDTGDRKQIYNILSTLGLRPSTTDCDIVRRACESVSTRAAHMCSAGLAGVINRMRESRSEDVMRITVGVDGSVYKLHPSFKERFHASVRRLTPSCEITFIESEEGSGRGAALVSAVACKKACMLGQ
Assay: In vitro glucokinase activity (G6PDH-coupled NADH assay)
Type: biochemical
Conditions: for SC1.5 (concentration of activator that produced a 50% increase in the activity of GK): 30° C., 5 mM D-glucose, 10% DMSO
Procedure, shortened: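 GST-tagged human liver GK1 from E. coli, assayed at 30° C in 25 mM Hepes pH 7.1 with 5 mM D-glucose, 1 mM ATP, 1.8 mM NAD and G6PDH coupling, 10% DMSO final; reaction started with enzyme after 10 min preincubation. NADH formation followed at OD340; SC1.5 is activator concentration giving 50% increase over DMSO control rate.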

SC1.5 (concentration of activator that produced a 50% increase in the activity of GK) [µM]	fold act. @ 30 μM (at 30 μM test compound) [fold]	SMILES
0.198		CC(C)C[C@@H](C(=O)Nc1ccn(CC(C)(C)O)n1)N1CC(Oc2c(F)cccc2F)=CC1=O [Example 45, (S)-2-[4-(2,6-difluoro-phenoxy)-2-oxo-2,5-dihydro-pyrrol-1-yl]-4-methyl-pentanoic acid [1-(2-hydroxy-2-methyl-propyl)-1H-pyrazol-3-yl]-amide]
4.062		COC[C@H](C)OC1=CC(=O)N([C@@H](CC2CCCC2)C(=O)Nc2ccn(CC(C)(C)O)n2)C1 [Example 13, (S)-3-Cyclopentyl-N-[1-(2-hydroxy-2-methyl-propyl)-1H-pyrazol-3-yl]-2-[4-((S)-2-methoxy-1-methyl-ethoxy)-2-oxo-2,5-dihydro-pyrrol-1-yl]-propionamide]
0.628		CC(C)C[C@@H](C(=O)Nc1ccn(C[C@@H]2CNC(=O)O2)n1)N1CC(Oc2ccccc2Cl)=CC1=O [Example 172, (S)-2-[4-(2-chloro-phenoxy)-2-oxo-2,5-dihydro-pyrrol-1-yl]-4-methyl-pentanoic acid [1-((S)-2-oxo-oxazolidin-5-ylmethyl)-1H-pyrazol-3-yl]-amide]
0.018		CC(C)(O)Cn1ccc(NC(=O)[C@H](CC2CCCCC2)N2CC(Oc3cccc(Cl)c3)=CC2=O)n1 [Example 207, (S)-2-[4-(3-chloro-phenoxy)-2-oxo-2,5-dihydro-pyrrol-1-yl]-3-cyclohexyl-N-[1-(2-hydroxy-2-methyl-propyl)-1H-pyrazol-3-yl]-propionamide]
0.695		CC(C)C[C@@H](C(=O)Nc1ccn(C[C@@H](O)C[C@@H](O)CC(=O)O)n1)N1CC(Oc2ccccc2Cl)=CC1=O [Example 194, (3R,5S)-6-(3-{(S)-2-[4-(2-chloro-phenoxy)-2-oxo-2,5-dihydro-pyrrol-1-yl]-4-methylpentanoylamino}-pyrazol-1-yl)-3,5-dihydroxy-hexanoic acid]
6.186		COC1=CC(=O)N([C@@H](CC2CCCC2)C(=O)Nc2nc(C)ns2)C1 [Example 4]
3.99		COC1=CC(=O)N([C@@H](CC2CCCC2)C(=O)Nc2ccc(C(=O)O)cn2)C1 [Example 11, 6-[(S)-3-Cyclopentyl-2-(4-methoxy-2-oxo-2,5-dihydro-pyrrol-1-yl)-propionylamino]-nicotinic acid]
0.012		COc1cccc(OC2=CC(=O)N([C@@H](CC3CCCCC3)C(=O)Nc3ccn(CC(C)(C)O)n3)C2)c1Cl [Example 57, (S)-2-[4-(2-Chloro-3-methoxy-phenoxy)-2-oxo-2,5-dihydro-pyrrol-1-yl]-3-cyclohexyl-N-[1-(2-hydroxy-2-methyl-propyl)-1H-pyrazol-3-yl]-propionamide]
5.251		CCCOC1=CC(=O)N([C@@H](CC2CCCCC2)C(=O)Nc2ccn(CC(C)(C)O)n2)C1 [Example 24, (S)-3-Cyclohexyl-N-[1-(2-hydroxy-2-methyl-propyl)-1H-pyrazol-3-yl]-2-(2-oxo-4-propoxy-2,5-dihydro-pyrrol-1-yl)-propionamide]
0.325		O=C(Nc1ccn(C[C@@H](O)CO)n1)[C@H](Cc1ccccc1F)N1CC(Oc2ccccc2Cl)=CC1=O [Example 183, (S)-2-[4-(2-chloro-phenoxy)-2-oxo-2,5-dihydro-pyrrol-1-yl]-N-[1-((R)-2,3-dihydroxy-propyl)-1H-pyrazol-3-yl]-3-(2-fluorophenyl)-propionamide]
> 30	1.4	CC(C)C[C@@H](C(=O)Nc1nc(N(C)C)ns1)N1CC(Oc2ccccc2Cl)=CC1=O [Example 108, (S)-2-[4-(2-Chloro-phenoxy)-2-oxo-2,5-dihydro-pyrrol-1-yl]-4-methyl-pentanoic acid (3-dimethylamino-[1,2,4]thiadiazol-5-yl)-amide]
0.055		CC(C)(O)Cn1ccc(NC(=O)[C@H](CC2CCCCC2)N2CC(Oc3cccc(OC(F)(F)F)c3)=CC2=O)n1 [Example 211, (S)-3-cyclohexyl-N-[1-(2-hydroxy-2-methyl-propyl)-1H-pyrazol-3-yl]-2-[2-oxo-4-(3-trifluoromethoxy-phenoxy)-2,5-dihydro-pyrrol-1-yl]-propionamide]
1.064		O=C(Nc1ccn(C[C@@H](O)CO)n1)[C@H](Cc1ccccc1)N1CC(Oc2ccccc2Cl)=CC1=O [Example 181, (S)-2-[4-(2-chloro-phenoxy)-2-oxo-2,5-dihydro-pyrrol-1-yl]-N-[1-((R)-2,3-dihydroxy-propyl)-1H-pyrazol-3-yl]-3-phenyl-propionamide]
0.33		CC(C)(O)Cn1ccc(NC(=O)[C@H](C[C@@H]2CCCCO2)N2CC(Oc3c(F)cccc3F)=CC2=O)n1 [Example 262, (S)-2-[4-(2,6-Difluoro-phenoxy)-2-oxo-2,5-dihydro-pyrrol-1-yl]-N-[1-(2-hydroxy-2-methyl-propyl)-1H-pyrazol-3-yl]-3-tetrahydro-pyran-2-yl-propionamide]
0.113		CC[C@@H](C)CC(C(=O)Nc1ccn(C[C@@H](O)CO)n1)N1CC(Oc2ccccc2Cl)=CC1=O (stereo partly drawn) [Example 253, (R)-2-[4-(2-Chloro-phenoxy)-2-oxo-2,5-dihydro-pyrrol-1-yl]-4-methyl-hexanoic acid [1-((R)-2,3-dihydroxy-propyl)-1H-pyrazol-3-yl]-amide]
1.03		COCCc1nsc(NC(=O)[C@H](CC(C)C)N2CC(Oc3ccccc3Cl)=CC2=O)n1 [Example 104, (S)-2-[4-(2-Chloro-phenoxy)-2-oxo-2,5-dihydro-pyrrol-1-yl]-4-methyl-pentanoic acid [3-(2-methoxy-ethyl)-[1,2,4]thiadiazol-5-yl]-amide]
0.368		CC(C)(O)Cn1ccc(NC(=O)[C@H](CC2CCCC2)N2CC(OCc3ccccc3)=CC2=O)n1 [Example 14, (S)-2-(4-Benzyloxy-2-oxo-2,5-dihydro-pyrrol-1-yl)-3-cyclopentyl-N-[1-(2-hydroxy-2-methyl-propyl)-1H-pyrazol-3-yl]-propionamide]
0.028		CC(C)(O)Cn1ccc(NC(=O)[C@H](CC2CCCCC2)N2CC(Oc3ccccc3)=CC2=O)n1 [Example 213, (S)-3-cyclohexyl-N-[1-(2-hydroxy-2-methyl-propyl)-1H-pyrazol-3-yl]-2-(2-oxo-4-phenoxy-2,5-dihydro-pyrrol-1-yl)-propionamide]
0.168		CC(C)C[C@@H](C(=O)Nc1ccn(C[C@@H](O)CO)n1)N1CC(Oc2cccc(Cl)c2F)=CC1=O [Example 97, (S)-2-[4-(3-Chloro-2-fluoro-phenoxy)-2-oxo-2,5-dihydro-pyrrol-1-yl]-4-methyl-pentanoic acid [1-((R)-2,3-dihydroxy-propyl)-1H-pyrazol-3-yl]-amide]
0.306		COc1cccc(OC2=CC(=O)N([C@@H](CC(C)C)C(=O)Nc3ccn(C[C@@H](O)CO)n3)C2)c1 [Example 160, (S)-2-[4-(3-Methoxy-phenoxy)-2-oxo-2,5-dihydro-pyrrol-1-yl]-4-methyl-pentanoic acid [1-((R)-2,3-dihydroxy-propyl)-1H-pyrazol-3-yl]-amide]
0.05		O=C(Nc1ccn(CCO)n1)[C@H](CC1CCCC1)N1CC(Oc2c(F)cccc2F)=CC1=O [Example 89, (S)-3-Cyclopentyl-2-[4-(2,6-difluoro-phenoxy)-2-oxo-2,5-dihydro-pyrrol-1-yl]-N-[1-(2-hydroxy-ethyl)-1H-pyrazol-3-yl]-propionamide]
1.196		CC(C)C[C@@H](C(=O)Nc1ccn(CC(=O)O)n1)N1CC(Oc2cccc(C3CC3)c2F)=CC1=O [Example 149, (3-{(S)-2-[4-(3-Cyclopropyl-2-fluoro-phenoxy)-2-oxo-2,5-dihydro-pyrrol-1-yl]-4-methyl-pentanoylamino}-pyrazol-1-yl)-acetic acid]

SMILES	SC1.5 (concentration of activator that produced a 50% increase in the activity of GK) [µM]	fold act. @ 30 μM (at 30 μM test compound) [fold]
Cc1ccccc1OC1=CC(=O)N([C@@H](CC(C)C)C(=O)Nc2ccn(CCO[Si](C)(C)C(C)(C)C)n2)C1 [Example 121, (S)-4-Methyl-2-(2-oxo-4-o-tolyloxy-2,5-dihydro-pyrrol-1-yl)-pentanoic acid {1-[2-(t-butyl-dimethyl-silanyloxy)-ethyl]-1H-pyrazol-3-yl}-amide]	0.746	
Cc1cccc(OC2=CC(=O)N([C@@H](CC(C)C)C(=O)Nc3ccn(CCO[Si](C)(C)C(C)(C)C)n3)C2)c1F [Example 132, (S)-2-[4-(2-Fluoro-3-methyl-phenoxy)-2-oxo-2,5-dihydro-pyrrol-1-yl]-4-methyl-pentanoic acid {1-[2-(t-butyl-dimethyl-silanyloxy)-ethyl]-1H-pyrazol-3-yl}-amide]	0.577	
